Like-named read-outs stand apart in the source and are kept apart here. Each block holds one compound with its values, some of them ahead of it.
Legend:
[1] = biological target: T1, rat D4 receptor (Rattus norvegicus, UniProt P30729); assay: biochemical
T1 sequence (P30729 1-387): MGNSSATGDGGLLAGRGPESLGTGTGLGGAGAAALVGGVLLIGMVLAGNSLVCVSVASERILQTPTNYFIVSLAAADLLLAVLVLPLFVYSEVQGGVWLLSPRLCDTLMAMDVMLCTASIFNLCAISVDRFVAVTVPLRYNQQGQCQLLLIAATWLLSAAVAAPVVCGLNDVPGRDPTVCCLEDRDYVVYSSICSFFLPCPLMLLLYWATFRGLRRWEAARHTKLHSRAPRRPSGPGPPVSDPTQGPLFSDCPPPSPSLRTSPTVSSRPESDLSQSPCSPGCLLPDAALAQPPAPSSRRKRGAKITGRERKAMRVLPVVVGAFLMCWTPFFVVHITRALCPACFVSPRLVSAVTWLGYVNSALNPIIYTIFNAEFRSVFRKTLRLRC
From the text: FIG. 4 is a pharmacological analysis of transfected rat D2444 and D4 receptors and human D3 receptors in CCL1.3 cells. […] FIG. 4B is a graph of [^3H]-spiperone (%) versus log [(+)butaclamol, M]. […] The rat D4 gene, the rat D2444 cDNA and the human D3 cDNA were inserted into the expression vector pcDNA/neo and transfected into CCL1.3 cells. […] Open circles, D4-expressing cells; closed circles, D2444-expressing cells, triangles, D3-expressing cells. Results are shown as mean±SD of percent of specifically bound [^3H]spiperone remaining for an experiment done in triplicate.
Mouse fibroblasts expressing D2A444 and D4 were grown to 70% confluence and then harvested by scraping. After they had been washed twice in PBS, the cell pellets were resuspended in distilled water and ruptured by homogenization with a Brinkman Polytron, at setting 6 for 10 sec. Nuclei were removed by centrifugation for 5 min at 600 g. Membranes were pelleted by centrifugation for 25 min at 50,000 g. The pellets were resuspended in water and frozen at −70° C. until assayed. For receptor binding assays, samples containing 150 μg of membrane protein were aliquoted into glass test tubes. [^3H]-Spiperone (1 nm) and varying concentrations of competing compounds were added in a final volume of 1 ml and a final buffer of 1.5 Mm CaCl2, 5 mM MgCl2, 5 mM KCl, 120 mM NaCl, 50 mM Tris-HCl, pH 7.4 at 20° C. The tubes were incubated for 15 min at 37° C., and the assays were terminated by addition of 5 ml of ice-cold 50 Mm Tris-HCl buffer (pH 6.9), collected onto glass-fiber filters, and washed twice with the same cold buffer in a modified Brandel cell harvester.
Transfected cells were enriched by expansion in medium containing G418. The rat D2 cDNA and the human D3 cDNA were expressed in the same cell line.

[2] = test system: D3 transfected MN9D cells; assay: Neurite morphology of D3 transfected MN9D cells; details: 1 μM eticlopride co-cultured with 2 μM quinpirole
[3] = test system: D4 transfected MN9D cells; assay: Neurite morphology of D4 transfected MN9D cells; details: 1 μM eticlopride co-cultured with 2 μM quinpirole
[4] = test system: D2A444 transfected MN9D cells; assay: Neurite morphology of D2A444 transfected MN9D cells; details: 1 μM eticlopride co-cultured with 2 μM quinpirole
[5] = test system: tyrosine hydroxylase expressing cells from E15 rat mesencephalon; assay: Morphology of tyrosine hydroxylase positive cells in primary E15 mesencephalon cultures; type: cell-based; details: 2 μM quinpirole, 90 hours, high density culture
From the text: Cultures were then fixed and dopamine synthesizing cells identified by tyrosine hydroxylase immunoreactivity. […] There are five TH positive cells in the control condition and three TH positive cells in the quinpirole condition.

Ki ([1]; Ki (D4)): 0.0223 ± 0.0019 µM
Ki ([1]; apparent Ki, D4 receptor): 0.027 ± 0.0029 µM
Compound: CCc1cc(Cl)c(OC)c(C(=O)NC[C@@H]2CCCN2CC)c1O [eticlopride]
block of the effects of quinpirole stimulation [2]: can be blocked
block of the effects of quinpirole stimulation [3]: can be blocked
block of the effects of quinpirole stimulation [4]: can be blocked

Compound: CCCN1CCC[C@@H]2Cc3n[nH]cc3C[C@H]21 [quinpirole]
morphology of TH positive cells versus control (in words) [5]: larger, have more branch points and much more extensive growth cone elaboration

Ki ([1]; read-out: apparent Ki, D4 receptor, transfected CCL1.3 cells, competition of 1 nM [3H]spiperone, mean±SEM): 0.0513 ± 0.0175 µM
Compound: (+)butaclamol [(+) butaclamal]
